Results reported in patent US20110136259A1, “IMMUNOASSAY FOR CROSS-REACTING SUBSTANCES” (LIFE TECHNOLOGIES CORPORATION, priority 2007, published 2011).

Key:
[1] = test system: Beckmann Access (commercial cortisol immunoassay); test: Synthetic glucocorticoid cross reactivity in Beckman Access cortisol immunoassay; type: binding; design: Access Cortisol Value: unit: ng/mL; details: for Access Cortisol Value: Method 1: all synthetics present at 2000 ng/mL, apparent cortisol read by Beckmann Access; for Percent cross reactivity, Access: determined by 2000 ng/mL sample; for % Reactivity (Method 2): serial dilutions 1:2, 1:4, 1:8 and 1:16, linear analysis evaluation; for % Reactivity (Method 1): synthetic present at 2000 ng/mL, (cortisol value)/(concentration of analyte) x 100%
Experimental: Initial synthetic glucocorticoid antibody cross reactivity data included LC-MS/MS analysis of patient samples was followed by analysis via the Beckman immunoassay system, and relative cross reactivities were calculated for each of the synthetic glucocorticoids of interest. Cross reactivities were also calculated based on a linearity study of each of the major cross reactive synthetic glucocorticoids to ensure that the values obtained for each were viable. (Table 1).
(§1) LC-MS/MS analysis of patient samples was followed by analysis using the Beckman Access (commercial assay), and relative cross reactivities were calculated for each of the synthetic glucocorticoids of interest. Synthetic positive patient samples were then mimicked in stripped serum for cortisol, cortisone and exogenous synthetic glucocorticoids. […] The linear relationship for these systems was examined and illustrated.

[2] = test system: Antibody 7 (clone XM210 from Abcam); test: Cross reactivity on anti-cortisol antibody microarray, antibody 7; type: binding; details: for Percent cross reactivity, antibody 7: determined by 2000 ng/mL sample; for % cross reactivity, antibody 7: from slopes of ([apparent cortisol] vs [cross reactant])
Text: (§2) The independent variables, these are x1 and x2 in the model are the various concentrations levels, where x1 is the concentration level of cortisol and x2 is the concentration level of the cross-reactant (in this case either 6AMP or prednisolone). The dependent variable, i.e. the variable that we are trying to predict, is the “apparent” cortisol concentration, which is estimated from the concentration-signal 4 parameter logistic regression model. […] These equations are given by,
(§3) In terms of the model β1 is interpreted as the amount that the “apparent” cortisol is increase per ng/ml increase of cortisol and similarly β2 is interpreted as the amount that the “apparent” cortisol is increased per ng/ml increase of cross-reactant. Finally to estimate the percent cross action it is given by:
(§4) The antibody concentrations were 125 ug/mL in buffered solutions comprising phosphate-buffered saline (PBS) and 1× Whatman Protein Arraying Buffer. The antibody solutions were applied to the slide surface using a Scienion sciflexarryer S5 piezo printer. The average spot sizes were 150 um. The antibodies within a sub array were printed in replicates of five spots, and each slide contained twelve sub arrays arranged in two columns of six. The relative spacing of the sub arrays was nine millimeters, equivalent to the spacing of a 96-well micro titer plate.
The micro-array slides were assembled with a superstructure that creates individual wells that surround the sub array (Slide Incubation Chambers, Whatman). The slides were blocked for one hour with micro array blocking buffer (VWR) and then washed with TRIS-buffered saline with Tween-20 (TBST). Cortisol-containing samples or calibrators were diluted 1 to 20 into a buffered solution that contained the following: TBST, 0.1% SDS, 3.3 nM cortisol 3-CMO Alexa Fluor 555, and 3.3 nM cortisol 21-HS Alexa Fluor 647. One-hundred micro liters of the assay mixture was applied to an individual well on the micro-array slide, and the assay was allowed to proceed for one hour at room temperature in the dark with gentle shaking on a micro-titer plate shaker. The assay mixture was removed, and the slides were washed with TBST, water, and then dried by spinning in a centrifuge. The intensities of fluorescence associated with each spot was quantified using a micro-array reader such as an Axon 4000B or 4200AL. The spot intensities for the calibrators were used to generate a standard curve by fitting the data to a four-parameter logistic model. The concentrations of the cortisol-containing patient samples or synthetic samples were interpolated using the logistic-fit equation. […]

[3] = test system: Antibody 9 (clone F4P1A3 from EMD Biosciences); test: Cross reactivity on anti-cortisol antibody microarray, antibody 9; type: binding; details: for Percent cross reactivity, antibody 9: determined by 2000 ng/mL sample; for % cross reactivity, antibody 9: from slopes of ([apparent cortisol] vs [cross reactant])
Text: as §2, §3, §4
(§5) The micro-array slides were assembled with a superstructure that creates individual wells that surround the sub array (Slide Incubation Chambers, Whatman). The slides were blocked for one hour with micro array blocking buffer (VWR) and then washed with TRIS-buffered saline with Tween-20 (TBST). Cortisol-containing samples or calibrators were diluted 1 to 20 into a buffered solution that contained the following: TBST, 0.1% SDS, 3.3 nM cortisol 3-CMO Alexa Fluor 555, and 3.3 nM cortisol 21-HS Alexa Fluor 647. One-hundred micro liters of the assay mixture was applied to an individual well on the micro-array slide, and the assay was allowed to proceed for one hour at room temperature in the dark with gentle shaking on a micro-titer plate shaker. The assay mixture was removed, and the slides were washed with TBST, water, and then dried by spinning in a centrifuge. The intensities of fluorescence associated with each spot was quantified using a micro-array reader such as an Axon 4000B or 4200AL. The spot intensities for the calibrators were used to generate a standard curve by fitting the data to a four-parameter logistic model. The concentrations of the cortisol-containing patient samples or synthetic samples were interpolated using the logistic-fit equation.
(§6) Subsequently, several cortisol antibodies were synthesized and relative cross reactivities were determined for the synthetic glucocorticoids obtained via the same described the Beckmann system (Tables 4 & 5). Cortisol antibodies should have specificity to distinguish the differences in the A ring of the steroid molecules shown below.

[4] = test system: Antibody 10 (clone A29220314P from BiosPacific); test: Cross reactivity on anti-cortisol antibody microarray, antibody 10; type: binding; details: for Percent cross reactivity, antibody 10: determined by 2000 ng/mL sample; for % cross reactivity, antibody 10: from slopes of ([apparent cortisol] vs [cross reactant])
Text: as §2, §3, §4, §5, §6

antibody 13 = test: Cross reactivity on anti-cortisol antibody microarray, antibody 13; type: binding; details: for Percent cross reactivity, antibody 13: determined by 2000 ng/mL sample; for % cross reactivity, antibody 13: from slopes of ([apparent cortisol] vs [cross reactant])
Text: (§7) This model is used to estimate the cross-reaction percentage. The independent variables, these are x1 and x2 in the model are the various concentrations levels, where x1 is the concentration level of cortisol and x2 is the concentration level of the cross-reactant (in this case either 6AMP or prednisolone). The dependent variable, i.e. the variable that we are trying to predict, is the “apparent” cortisol concentration, which is estimated from the concentration-signal 4 parameter logistic regression model. We fit this model using standard multiple linear regression methods to estimate β1 and β2. These equations are given by,
as §3, §4, §5, §6

antibody 17 = test: Cross reactivity on anti-cortisol antibody microarray, antibody 17; type: binding; details: for Percent cross reactivity, antibody 17: determined by 2000 ng/mL sample; for % cross reactivity, antibody 17: from slopes of ([apparent cortisol] vs [cross reactant])
Text: as §7, §3, §4, §5, §6

[5] = LC-MS/MS analysis of synthetic-positive patient samples; type: in vivo; details: population of positive patient samples
Text: In the present method mass spectrometric methods were used to determine actual analyte levels in clinical patient populations. Some of these samples were subjected to the current immunoassay systems and the interference relationship was established. After identifying the most commonly present exogenous drugs present in the samples, this information was used toward establishing an assay, free from the limitations of the mass spec. deconvolution, that gives an accurate depiction of the analyte, such as cortisol, levels in a patient sample.
A population was drawn of positive synthetic patient samples once cross reactivities were determined for individual steroids (Table 2).
as §1

antibody 21509 = test: Cross reactivity on anti-cortisol antibody microarray, antibody 21509; type: binding; details: from slopes of ([apparent cortisol] vs [cross reactant])
Text: as §7
(§8) In terms of the model β1 is interpreted as the amount that the “apparent” cortisol is increase per ng/ml increase of cortisol and similarly β2 is interpreted as the amount that the “apparent” cortisol is increased per ng/ml increase of cross-reactant. […]
(§9) The micro-array slides were assembled with a superstructure that creates individual wells that surround the sub array (Slide Incubation Chambers, Whatman). […] The intensities of fluorescence associated with each spot was quantified using a micro-array reader such as an Axon 4000B or 4200AL. […]
(§10) Subsequently, several cortisol antibodies were synthesized and relative cross reactivities were determined for the synthetic glucocorticoids obtained via the same described the Beckmann system (Tables 4 & 5). […]

antibody ECB = test: Cross reactivity on anti-cortisol antibody microarray, antibody ECB; type: binding; details: from slopes of ([apparent cortisol] vs [cross reactant])
Text: as §7, §8, §9, §10

Structure (SMILES)	Access Cortisol Value [1]	Percent cross reactivity, Access [1] [%]	% Reactivity (Method 2) [1] [%]	% Reactivity (Method 1) [1] [%]	Percent cross reactivity, antibody 7 [2] [%]	% cross reactivity, antibody 7 [2] [%]	Percent cross reactivity, antibody 9 [3] [%]	% cross reactivity, antibody 9 [3] [%]	Percent cross reactivity, antibody 10 [4]	% cross reactivity, antibody 10 [4] [%]	Percent cross reactivity, antibody 13 (antibody 13) [%]	% cross reactivity, antibody 13 (antibody 13) [%]	Percent cross reactivity, antibody 17 (antibody 17) [%]	% cross reactivity, antibody 17 (antibody 17) [%]	Range of steroid concentration in synthetic positive patient samples [5] [ng/mL]	% cross reactivity, antibody 21509 (antibody 21509) [%]	% cross reactivity, antibody ECB (antibody ECB) [%]
C[C@H]1C[C@@H]2[C@H]([C@@H](O)C[C@@]3(C)[C@H]2CC[C@]3(O)C(=O)CO)[C@@]2(C)C=CC(=O)C=C12 [SYN-1, 6-a-methyl prednisolone]	34.4	2	1.4	1.72	9	7	2	2	high	109	10	6	3	1	1.7 to 130	–	–
C[C@]12C=CC(=O)C=C1CC[C@@H]1[C@@H]2C(=O)C[C@@]2(C)[C@H]1CC[C@]2(O)C(=O)CO [SYN-2, Prednisone]	50.8	3	2.2	2.54	1	<1	21	26	0%	1	1	–	20	–	1.9 to 72	<1	1
CC1(C)O[C@@H]2C[C@H]3[C@@H]4CCC5=CC(=O)C=C[C@]5(C)[C@@]4(F)[C@@H](O)C[C@]3(C)[C@]2(C(=O)CO)O1 [SYN-3, Triamcinolone acetonide]	–	–	–	–	–	–	–	–	–	–	–	–	–	–	0.3 to 2.3	–	–
C[C@]12C=CC(=O)C=C1CC[C@H]1[C@@H]3C[C@@H](O)[C@](O)(C(=O)CO)[C@@]3(C)C[C@H](O)[C@@]12F [SYN-4, Triamcinolone]	1.1	0	–	0.055	0	–	1	–	0%	–	0	–	0	–	–	–	–
C[C@]12CCC(=O)C=C1CC[C@@H]1[C@@H]2C(=O)C[C@@]2(C)[C@H]1CC[C@]2(O)C(=O)CO [SYN-6, Cortisone]	94	5	4.5	4.7	1	1	13	15	0%	<1	1	1	11	13	–	–	–
C[C@]12C=CC(=O)C=C1CC[C@@H]1[C@@H]2[C@@H](O)C[C@@]2(C)[C@H]1CC[C@]2(O)C(=O)CO [SYN-7, Prednisolone]	420.7	21	20.8	21.035	5	5	15	37	68%	133	4	5	14	35	0.6 to 640	–	–
CC(=O)[C@@]1(O)CC[C@H]2[C@@H]3C[C@H](C)C4=CC(=O)C=C[C@]4(C)[C@@]3(F)[C@@H](O)C[C@@]21C [SYN-8, Fluorometholone]	0.8	0	–	0.04	0	–	0	–	6%	–	0	–	0	–	–	–	–
C[C@@H]1C[C@H]2[C@@H]3CCC4=CC(=O)C=C[C@]4(C)[C@@]3(F)[C@@H](O)C[C@]2(C)[C@@]1(O)C(=O)CO [SYN-10, Dexamethasone]	–	–	–	–	–	–	–	–	–	–	–	–	–	–	1.0 to 14.0	–	–
